Reference: patent US8574831B2, “Mutational profiles in HIV-1 reverse transcriptase correlated with phenotypic drug resistance” (Virco N.V., priority 2000, dated 2013)

System: HIV with mutations in the HIV protease sequence
Assay: Phenotypic fold resistance to protease inhibitors, protease mutations 84A/84L/84C/54M/54L/54V in a background (Examples 8-13)
Type: cell-based, HIV-1
Protocol: As is the case with the genotyping assays, the recombinant virus assay starts with the amplification of viral target sequences by means of PCR. The amplicons are incorporated into a proviral laboratory clone with sequences homologous to those present in the amplicon deleted. This generates a stock of chimeric viruses. The viruses are tested for their ability to grow in the presence of different concentrations of drugs. Results are obtained by calculating IC50 values for each inhibitor and by reporting the results as IC50 values, expressed in μM concentrations, or by computing the ratio of the IC50 values found for the chimeric virus to the IC50 values found for a wild type susceptible laboratory virus tested in parallel. In the latter case, resistance is expressed as “fold-resistance” compared to a wild-type susceptible HIV-1 strain. In order to meet the need for high-volume testing and a short turn-around time for an individual test, the latest generation of phenotyping assays has undergone further modifications. The use of reporter gene systems for susceptibility testing allows the implementation of laboratory automation and standardization. See Pauwels, et al., J. Virol. Methods 20, 309-321 (1998); Paulous, S., et al., International Workshop on HIV Drug Resistance, Treatment Strategies and Eradication, St. Petersburg, Fla., USA. Abstr. 46 (1997); and Deeks, S. G., et al., 2nd International Workshop on HIV Drug Resistance and Treatment Strategies, Lake Maggiore, Italy. Abstr. 53 (1998).
The ANTIVIROGRAM® assay (Virco) (WO 97/27480) is based on homologous recombination of patient derived HIV-1 gag/PR/RT sequences into a proviral HIV-1 clone correspondingly deleted for the gag/PR/RT sequences. See Pauwels, et al., J. Virol. Methods 20, 309-321 (1998). A similar assay (Phenosense ViroLogic) is based on enzymatic ligation of patient-derived PR/RT sequences into a correspondingly deleted proviral vector carrying an indicator gene, luciferase, inserted in the deleted HIV-1 envelope gene. See Deeks, S. G., et al., 2nd International Workshop on HIV Drug Resistance and Treatment Strategies, Lake Maggiore, Italy. Abstr. 53 (1998). Hertogs et al. Antimicrob. Agents Chemother. 44(3) 568-573 (2000) the disclosures of which are herein incorporated by reference.
The methods of monitoring HIV-1 drug resistance, may also be used in combination with phenotypic drug resistance testing of viral isolates. For example, in one embodiment, a phenotypic test is utilized that is based upon the construction of chimeric HIV-1 strains composed of the protease (PR) and reverse transcriptase (RT) gene sequences which are isolated and amplified from the patient viral RNA. These strains may subsequently be recombined inside CD4+ T cells with a standard laboratory isogenic (HXB2) HIV-1 DNA construct from which the PR/RT gene sequences were deleted. The recombinant strains may then be grown in the presence of the above-mentioned antiviral drugs and the susceptibility of the viral isolates may be expressed as fold-change value of the IC50 of the drug on the patient isolates over the IC50 of the drug on a wild-type laboratory reference strain.

CC(C)CN(C[C@@H](O)[C@H](Cc1ccccc1)NC(=O)O[C@H]1CCOC1)S(=O)(=O)c1ccc(N)cc1 [Amprenavir, amprenavir]
mean fold increase in resistance (Table 9 #1, protease genotype WT): 1 fold
mean fold increase in resistance (Table 9 #2, protease genotype 10I): 1.1 fold
mean fold increase in resistance (Table 9 #3, protease genotype 46I): 1.2 fold
mean fold increase in resistance (Table 9 #4, protease genotype 46I + 84V): 2.3 fold
mean fold increase in resistance (Table 9 #5, protease genotype 46I + 84A): 7.7 fold
mean fold increase in resistance (Table 9 #6, protease genotype 10I + 46I): 5.6 fold
mean fold increase in resistance (Table 9 #7, protease genotype 10I + 46I + 84V): 4.5 fold
mean fold increase in resistance (Table 9 #8, protease genotype 10I + 46I + 84A): 17 fold
mean fold increase in resistance (Table 9 #9, protease genotype 10L/I + 46I + 84A): 24.9 fold
mean fold increase in resistance (Table 9 #10, protease genotype 10I + 46I + 84A): 11 fold
mean fold increase in resistance (Table 9 #11, protease genotype 46I + 71V): 2.2 fold
mean fold increase in resistance (Table 9 #12, protease genotype 46I + 71V + 84V/I): 2.2 fold
mean fold increase in resistance (Table 9 #13, protease genotype 46I + 71V + 84A): 23 fold
mean fold increase in resistance (Table 9 #14, protease genotype 10F + 46I + 71V): 4.2 fold
mean fold increase in resistance (Table 9 #15, protease genotype 10I + 46I + 71V + 84V): 17.8 fold
mean fold increase in resistance (Table 9 #16, protease genotype 10I + 46I + 71V + 84A): 15.2 fold
mean fold increase in resistance (Table 9 #17, protease genotype 10V + 46I + 71T + 84A): 39.8 fold
mean fold increase in resistance (Table 9 #18, protease genotype 10I + 46I + 71V + 77I): 0.9 fold
mean fold increase in resistance (Table 9 #19, protease genotype 10I + 46I + 71V + 77I + 84V): 1.4 fold
mean fold increase in resistance (Table 9 #20, protease genotype 10I + 46I + 71V + 77I + 84A): 15 fold
mean fold increase in resistance (Table 9 #21, protease genotype 10I + 33L/I + 46I + 71V + 77V/I + 84A): 10.9 fold
mean fold increase in resistance (Table 10 #1, protease genotype 10I + 36I + 71V): 1.0 fold
mean fold increase in resistance (Table 10 #2, protease genotype 10I + 36I + 71I + 84V): 1.1 fold
mean fold increase in resistance (Table 10 #3, protease genotype 10I + 36I + 71I + 84L): 0.3 fold
mean fold increase in resistance (Table 11 #1, protease genotype WT): 1.0 fold
mean fold increase in resistance (Table 11 #2, protease genotype 84V): 2.0 fold
mean fold increase in resistance (Table 11 #3, protease genotype 84C): 5.9 fold
mean fold increase in resistance (Table 11 #4, protease genotype 10I): 1.1 fold
mean fold increase in resistance (Table 11 #5, protease genotype 10I + 84V): 1.2 fold
mean fold increase in resistance (Table 11 #6, protease genotype 10I + 84C): 3.4 fold
mean fold increase in resistance (Table 11 #7, protease genotype 77I): 0.6 fold
mean fold increase in resistance (Table 11 #8, protease genotype 77I + 84V): 3.3 fold
mean fold increase in resistance (Table 11 #9, protease genotype 77I + 84C): 2.2 fold
mean fold increase in resistance (Table 11 #10, protease genotype 77I + 84C): 4.9 fold
mean fold increase in resistance (Table 11 #11, protease genotype 10I + 24I + 36I + 46I + 71V + 84C): 12.8 fold
Fold change in IC50 (Table 12, V19263, genotype 77I): 0.6 fold
Fold change in IC50 (Table 12, V20160, genotype WT): 1.0 fold
Fold change in IC50 (Table 12, V021667, genotype 10I): 1.1 fold
Fold change in IC50 (Table 12, V030496, genotype 10I + 77I): 0.5 fold
Fold change in IC50 (Table 12, V048869, genotype 10I + 54M + 77I + 90M): 9.3 fold
Fold change in IC50 (Table 12, V048872, genotype 33F + 54M + 77I + 90M): 30.3 fold
Fold change in IC50 (Table 12, V048873, genotype 33F + 54M + 77I + 90M): 37.5 fold
Fold change in IC50 (Table 12, V048877, genotype 10I + 33F + 77I + 90M): 7.9 fold
Fold change in IC50 (Table 12, V048878, genotype 10I + 33F + 54M + 71V + 77I + 90M): 13.7 fold
Fold change in IC50 (Table 12, V048879, genotype 10I + 33F + 54M + 71V + 77I + 90M): 14.1 fold
Fold change in IC50 (Table 12, V048880, genotype 10I + 33F + 77I + 90M): 3.8 fold
Fold change in IC50 (Table 12, V052940, genotype 71V): 0.3 fold
Fold change in IC50 (Table 12, V052942, genotype 10I + 71V): 0.5 fold
Fold change in IC50 (Table 12, V052943, genotype 10I + 90M): 0.4 fold
Fold change in IC50 (Table 12, V052944, genotype 10I + 90M): 0.7 fold
Fold change in IC50 (Table 12, V052945, genotype 77I + 90M): 0.3 fold
Fold change in IC50 (Table 12, V052946, genotype 71V + 90M): 0.5 fold
Fold change in IC50 (Table 12, V052947, genotype 10I + 77I + 90M): 1.2 fold
Fold change in IC50 (Table 12, V052948, genotype 10I + 71V + 90M): 2.0 fold
Fold change in IC50 (Table 12, V052949, genotype 10I + 71V + 77I + 90M): 0.6 fold
Fold change in IC50 (Table 12, V052950, genotype 33F): 0.7 fold
Fold change in IC50 (Table 12, V052951, genotype 33F + 77I): 0.3 fold
Fold change in IC50 (Table 12, V052953, genotype 10I + 33F + 77I): 1.5 fold
Fold change in IC50 (Table 12, V052954, genotype 33F + 77I + 90M): 2.1 fold
Fold change in IC50 (Table 12, V052955, genotype 33F + 71V + 90M): 2.7 fold
Fold change in IC50 (Table 12, V052977, genotype 10I + 33F + 54M): 12.2 fold
Fold change in IC50 (Table 12, V052978, genotype 10I + 33F + 54M + 71V + 90M): 19.3 fold
Fold change in IC50 (Table 12, V052979, genotype 10I + 54M): 10.4 fold
Fold change in IC50 (Table 12, V052980, genotype 10I + 54M + 90M): 1.4 fold
Fold change in IC50 (Table 12, V052981, genotype 10I + 54M + 71V + 90M): 8.9 fold
Fold change in IC50 (Table 12, V052982, genotype 10I + 54M + 71V + 77I + 90M): 3.1 fold
Fold change in IC50 (Table 12, V053832, genotype 10I + 33F): 0.6 fold
